This passage reports IC50 results from patent publication US20260166039A1 (SCHRÖDINGER, INC., priority 2022, published 2026).

In the first assay the target is T1, Wee1 kinase domain (Homo sapiens, UniProt P30291).
T1 construct: Wee1 kinase domain was purchased from Carna (catalog #05-177); purchased Carna 05-177
T1 sequence (P30291 299-569 limits assumed): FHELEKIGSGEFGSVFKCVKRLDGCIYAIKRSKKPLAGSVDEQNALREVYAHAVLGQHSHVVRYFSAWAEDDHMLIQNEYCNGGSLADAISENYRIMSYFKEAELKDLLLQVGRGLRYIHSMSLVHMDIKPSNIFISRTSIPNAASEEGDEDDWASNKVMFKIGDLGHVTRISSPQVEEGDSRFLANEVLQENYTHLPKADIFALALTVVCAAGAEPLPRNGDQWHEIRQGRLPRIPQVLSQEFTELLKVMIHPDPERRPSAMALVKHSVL
In words: Wee1 Kinase Biochemical Assay (ADP-Glo). As to conditions: 1 nM Wee1 enzyme, 15 uM ATP, 4 hours at 25° C. An outline of the steps: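 Compounds tested against 1 nM Wee1 kinase domain in Tris buffer containing 20 mM MgCl2, BSA and 2 mM DTT, with 15 uM ATP and poly(Lys,Tyr) substrate for 4 h at 25 °C. Luminescent ADP detection gave percent inhibition, normalized to DMSO and saturating inhibitor.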
Background: ADP-Glo turns the ADP formed in a reaction into a luminescent signal.
What is called IC50 is the concentration that gives 50% inhibition. A high value points to weaker potency in that assay. `CN(C)C1CCN(c2ccc(Nc3ncc4c(n3)N(c3ccccn3)[C@@H]3CC(C)(C)OC[C@]43C)cc2)CC1` (single isomer, unassigned) [Example 819] yielded an IC50 of under 0.01 µM.

Turning to `CC1(C)C[C@H]2N(c3cccc(N=S(C)(C)=O)n3)c3nc(Nc4cncc(C#N)c4)ncc3[C@@]2(C)CO1` (single isomer, unassigned) [Example 818], the IC50 is under 0.01 µM.

Still in this assay, the particulars now being: Wee1 kinase domain, 15 uM ATP, ADP-Glo.
In turn, `Cc1cc(Nc2ncc3c(n2)N(c2cccc(N4C(=O)OC[C@@H]4C)n2)[C@H]2CC(C)(C)OC[C@@]32C)ccc1O[C@H]1CCN(C)C1` (single isomer, unassigned) [Example 344] yielded an IC50 of 0.01 to 0.1 µM.

In turn, `CC(=O)Nc1ncc2c(n1)N(c1cccc(N=S(C)(C)=O)n1)[C@@H]1CC(C)(C)OC[C@]21C` (single isomer, unassigned) [Example 398] displayed an IC50 of 0.01 to 0.1 µM.

`C[C@H]1COC(=O)N1c1cccc(N2c3nc(N)ncc3[C@]3(C)COC(C)(C)C[C@H]23)n1` (single isomer, unassigned) [Example 357] yielded an IC50 of 0.1 to 1 µM.

On to `CN1CC[C@](C)(c2ccc(Nc3ncc4c(n3)N(c3cccc(N=S(C)(C)=O)n3)[C@H]3CC(C)(C)OC[C@@]43C)cc2)C1` (single isomer, unassigned) [Example 167], for which the IC50 fell in the range of 0.01 to 0.1 µM.

For `CN1CCC[C@H](n2cc(Nc3ncc4c(n3)N(c3cccc(N=S(C)(C)=O)n3)[C@H]3CC(C)(C)OC[C@@]43C)cn2)C1` (single isomer, unassigned) [Example 200], the IC50 is 0.01 to 0.1 µM.

`CN1CCC(n2cnc(Nc3ncc4c(n3)N(c3cccc(N=S(C)(C)=O)n3)[C@H]3CC(C)(C)OC[C@@]43C)c2)CC1` (single isomer, unassigned) [Example 206] registered a half-inhibitory concentration (IC50) of 0.1 to 1 µM.

`CNCc1cccc(N2c3nc(Nc4ccc(N5CCOCC5)cc4)ncc3[C@]3(C)COC(C)(C)C[C@H]23)n1` (single isomer, unassigned) [Example 6] displayed an IC50 of 0.01 to 0.1 µM.

As to `CN1CCN(c2ccc(Nc3ncc4c(n3)N(c3cccc(N=S(C)(C)=O)n3)[C@H]3CC(C)(C)OC[C@@]43C)cc2)CC1` [Example 99, dimethyl((6-((4bS,8aS)-4b,7,7-trimethyl-2-((4-(4-methylpiperazin-1-yl)phenyl)amino)-4b,7,8,8a-tetrahydropyrano[3′,4′:4,5]pyrrolo[2,3-d]pyrimidin-9(5H)-yl)pyridin-2-yl)imino)-16-sulfanone], the IC50 lay within 0.1 to 1 µM.

Turning to `CNCc1cccc(N2c3nc(Nc4ccc([C@@H]5CNC(=O)C5)cc4)ncc3[C@]3(C)COC(C)(C)C[C@H]23)n1` (single isomer, unassigned) [Example 64], the IC50 is 0.01 to 0.1 µM.

Compound `CNCc1cccc(N2c3nc(Nc4ccc([C@]5(C)CCN(C)C5=O)cc4)ncc3[C@]3(C)COC(C)(C)C[C@H]23)n1` (single isomer, unassigned) [Example 77] returned an IC50 of 0.1 to 1 µM.

For `C[C@H]1COC(=O)N1c1cccc(N2c3nc(Nc4ccc(N5C[C@H]6C[C@@H]5CN6C)c(F)c4)ncc3[C@]3(C)COC(C)(C)C[C@H]23)n1` (single isomer, unassigned) [Example 290], the IC50 was under 0.01 µM.

For the compound `Cc1cc(Nc2ncc3c(n2)N(c2cccc(N4C(=O)OC[C@@H]4C)n2)[C@H]2CC(C)(C)OC[C@@]32C)ccc1C1CCN(C)CC1` (single isomer, unassigned) [Example 239], the IC50 was under 0.01 µM.

In turn, `C[C@H]1COC(=O)N1c1cccc(N2c3nc(Nc4ccc(N5C[C@@H]6C[C@H]5CN6C)c(F)c4)ncc3[C@]3(C)COC(C)(C)C[C@H]23)n1` (single isomer, unassigned) [Example 292] came in with an IC50 of 0.01 to 0.1 µM.

The same assay, now with this note: class symbols; 1 nM Wee1 enzyme, 15 uM ATP, 4 hours at 25° C.
Regarding `CC1(C)C[C@H]2N(c3ccccn3)c3nc(Nc4ccc(N5CCN6CC[C@@H]5C6)cc4)ncc3[C@@]2(C)CO1` [Example 808, (4bR,8aR)-N-(4-((5R)-1,4-diazabicyclo[3.2.1]octan-4-yl)phenyl)-4b,7,7-trimethyl-9-(pyridin-2-yl)-4b,5,7,8,8a,9-hexahydropyrano[3′,4′:4,5]pyrrolo[2,3-d]pyrimidin-2-amine], the IC50 is under 0.01 µM.

Take `CN1CC2(C1)CN(c1ccc(Nc3ncc4c(n3)N(c3cccc(C(C)(C)O)n3)[C@H]3CC(C)(C)OC[C@@]43C)cc1)C2` (single isomer, unassigned) [Example 444]: the IC50 was in the range of 0.1 to 1 µM.

As to `CN1C[C@H]2C[C@@H]1CN2c1ccc(Nc2ncc3c(n2)N(c2cccc(N4C(=O)CCC4(C)C)n2)[C@@H]2CC(C)(C)OC[C@]32C)cc1` [Example 797, 5,5-dimethyl-1-(6-((4bR,8aR)-4b,7,7-trimethyl-2-((4-((1R,4R)-5-methyl-2,5-diazabicyclo[2.2.1]heptan-2-yl)phenyl)amino)-4b,7,8,8a-tetrahydropyrano[3′,4′:4,5]pyrrolo[2,3-d]pyrimidin-9(5H)-yl)pyridin-2-yl)pyrrolidin-2-one], the half-maximal inhibitory concentration (IC50) was under 0.01 µM.

Take `CN1CC[C@@H]2CN(c3ccc(Nc4ncc5c(n4)N(c4cccc(N6CCOC6=O)n4)[C@H]4CC(C)(C)OC[C@@]54C)cc3)C[C@@H]21` [Example 706, 3-(6-((4bS,8aS)-4b,7,7-trimethyl-2-((4-((3aR,6aR)-1-methylhexahydropyrrolo[3,4-b]pyrrol-5(1H)-yl)phenyl)amino)-4b,7,8,8a-tetrahydropyrano[3′,4′:4,5]pyrrolo[2,3-d]pyrimidin-9(5H)-yl)pyridin-2-yl)oxazolidin-2-one]: the IC50 lay within 0.01 to 0.1 µM.

Turning to `CC1(C)C[C@@H]2N(c3cccc([C@H]4CCNC4)n3)c3nc(Nc4ccc(N5CCOCC5)cc4)ncc3[C@]2(C)CO1` (single isomer, unassigned) [Example 541], the IC50 was 0.1 to 1 µM.

`CN1CCN(c2ccc(Nc3ncc4c(n3)N(c3cccc(N5CCCC5=O)n3)[C@H]3CC(C)(C)OC[C@@]43C)cc2)CC1` (single isomer, unassigned) [Example 586] yielded an IC50 of 0.01 to 0.1 µM.

As for `CNCc1cccc(N2c3nc(NC(=O)C4CC4)ncc3[C@@]3(C)COC(C)(C)C[C@@H]23)n1` (single isomer, unassigned) [Example 762], the IC50 was in the range of 0.01 to 0.1 µM.

Compound `CN1CC[C@@H]2CN(c3ccc(Nc4ncc5c(n4)N(c4cccc(C(C)(C)O)n4)[C@H]4CC(C)(C)OC[C@@]54C)cc3)C[C@@H]21` (single isomer, unassigned) [Example 438] came in with an IC50 of 0.1 to 1 µM.

`CN[C@@H]1CCc2ccc(N3c4nc(Nc5ccc(N6CCOCC6)cc5)ncc4[C@]4(C)COC(C)(C)C[C@H]34)nc21` (single isomer, unassigned) [Example 554] came in with an IC50 of 0.1 to 1 µM.

`CC1(C)C[C@@H]2N(c3cccc(C4CCNCC4)n3)c3nc(Nc4ccc(N5CCOCC5)cc4)ncc3[C@]2(C)CO1` (single isomer, unassigned) [Example 532] returned a 50% inhibitory concentration (IC50) of 0.1 to 1 µM.

Take `CNCc1cccc(N2c3nc(Nc4ccc(N5CCN(C)C(=O)C5)cc4)ncc3[C@]3(C)COC(C)(C)C[C@H]23)n1` (single isomer, unassigned) [Example 449]: the 50% inhibitory concentration (IC50) was 0.01 to 0.1 µM.

Consider `CC1(C)C[C@@H]2N(c3cccc(N4CCCC4=O)n3)c3nc(Nc4ccc([C@H]5CCNC5)cc4)ncc3[C@]2(C)CO1` [Example 637, 1-(6-((4bS,8aS)-4b,7,7-trimethyl-2-((4-((R)-pyrrolidin-3-yl)phenyl)amino)-4b,7,8,8a-tetrahydropyrano[3′,4′:4,5]pyrrolo[2,3-d]pyrimidin-9(5H)-yl)pyridin-2-yl)pyrrolidin-2-one], for which the concentration for half-maximal inhibition (IC50) fell in the range of 0.01 to 0.1 µM.

On to `CNCc1cccc(N2c3nc(Nc4cnn(C)c4)ncc3[C@]3(C)COC(C)(C)C[C@H]23)n1` (single isomer, unassigned) [Example 471], for which the IC50 is 0.1 to 1 µM.

`Cc1cc(Nc2ncc3c(n2)N(c2cccc(N4CCCC4=O)n2)[C@H]2CC(C)(C)OC[C@@]32C)ccc1N1C[C@@H]2C[C@H]1CN2C` [Example 653, 1-(6-((4bS,8aS)-4b,7,7-trimethyl-2-((3-methyl-4-((1S,4S)-5-methyl-2,5-diazabicyclo[2.2.1]heptan-2-yl)phenyl)amino)-4b,7,8,8a-tetrahydropyrano[3′,4′:4,5]pyrrolo[2,3-d]pyrimidin-9(5H)-yl)pyridin-2-yl)pyrrolidin-2-one] showed an IC50 of 0.01 to 0.1 µM.

Compound `CCn1cc(Nc2ncc3c(n2)N(c2cccc(N=S(C)(C)=O)n2)[C@@H]2CC(C)(C)OC[C@]32C)nn1` (single isomer, unassigned) [Example 516] came in with an IC50 of under 0.01 µM.

`CNCc1cccc(N2c3nc(Nc4ccn(C)c(=O)c4)ncc3[C@@]3(C)COC(C)(C)C[C@@H]23)n1` (single isomer, unassigned) [Example 456] displayed an IC50 of 0.01 to 0.1 µM.

`Cc1cc(Nc2ncc3c(n2)N(c2cccc(N4CCCC4=O)n2)[C@H]2CC(C)(C)OC[C@@]32C)ccc1N1C[C@H]2C[C@@H]1CN2C` [Example 659, 1-(6-((4bS,8aS)-4b,7,7-trimethyl-2-((3-methyl-4-((1R,4R)-5-methyl-2,5-diazabicyclo[2.2.1]heptan-2-yl)phenyl)amino)-4b,7,8,8a-tetrahydropyrano[3′,4′:4,5]pyrrolo[2,3-d]pyrimidin-9(5H)-yl)pyridin-2-yl)pyrrolidin-2-one] displayed an IC50 of 0.01 to 0.1 µM.

`CN1CC[C@@H](n2ccc(Nc3ncc4c(n3)N(c3cccc(N=S(C)(C)=O)n3)[C@@H]3CC(C)(C)OC[C@]43C)cc2=O)C1` [Example 804, 4-(((4bR,8aR)-9-(6-((dimethyl(oxo)-16-sulfaneylidene)amino)pyridin-2-yl)-4b,7,7-trimethyl-4b,5,7,8,8a,9-hexahydropyrano[3′,4′:4,5]pyrrolo[2,3-d]pyrimidin-2-yl)amino)-1-((R)-1-methylpyrrolidin-3-yl)pyridin-2(1H)-one] yielded an IC50 of under 0.01 µM.

Compound `CC1(C)C[C@H]2N(c3cccc(N=S(C)(C)=O)n3)c3nc(Nc4ccncc4)ncc3[C@@]2(C)CO1` (single isomer, unassigned) [Example 512] returned an IC50 of 0.1 to 1 µM.

The compound `CC1(C)C[C@@H]2N(c3cccc(C4(F)CNC4)n3)c3nc(Nc4ccc(N5CCOCC5)cc4)ncc3[C@]2(C)CO1` (single isomer, unassigned) [Example 546] showed an IC50 of 0.1 to 1 µM.
